Key:
[1] = system: allogeneic target cells partially matched at HLA class I; test: HLA restriction of peptide specific CTL using allogeneic target cells partially matched at HLA class I; type: cell-based, human; conditions: clone B3 (patient A-1) and polyclonal CTL line (patient A-3)
Protocol: Using patient A-1's HBsAg329-348 specific cell line four clones were derived from cells plated at 1 cell per well (clone B13, B16, B17) or 0.3 cells per well (clone B3). Clone B3 was tested against a panel of allogeneic target cells partially matched with the effectors at the level of HLA class I alleles. […] Since the HLA-A2 subtypes of the patients were not determined, it is not known if the CTL response to the peptides is restricted only by the HLA-A2.1 allele or whether it extends to other HLA-A2 subtypes as well.

[2] = system: PBMC from patients and normal donors; conditions: patients A-1 and A-3, after 2-3 weeks of stimulation

With ASARFSWLSLLVPFVQWFVG [HBsAg329-348] the “HLA restriction of cytolytic activity of peptide specific CTL” value [1] was “HLA-A2 restricted” and the “cytotoxic response of peptide stimulated PBMC against JY cells prepulsed with the peptide” value [2] was “strong cytotoxic response”.
